In patent US11033549B2, “Use of heterocyclic compounds in the treatment of pigmented skin” (ATIR Holding S.A., priority 2017, dated 2021):

Test system: skin
Test: Effect of topical application of R-55 on skin of female volunteers
Type: in vivo, human
Conditions: two middle-aged Caucasian female volunteers, daily topical application, after about one month
Experimental: A formulation for topical administration of R-55 (2-((4-(3-hydroxyphenyl)piperazin-1-yl)methyl)quinazolin-4-one) was prepared, comprising 10 mg/ml R-55.
A lipid-based phase was formed which consisted primarily of propylene glycol (a solvent of R-55 and penetration enhancer), along with Gelucire® 44/14 lauroyl macrogolglycerides (a solubilizer of R-55), Gelucire® 50/13 stearoyl macrogolglycerides (a sustained release agent), phosphatidyl choline (a surfactant), Labrasol® caprylocaproyl macrogolglycerides (a co-surfactant and penetration enhancer), Lauroglycol™ 90 (a solubilizer of R-55, co-surfactant and penetration enhancer), and vitamin E TPGS (a stabilizer). The ingredients were mixed by stirring at a temperature in a range of from 40° C. to 60° C. until the phosphatidyl choline and R-55 were completely dissolved, as indicated by obtaining a clear solution.
An aqueous solution of a carbomer (Carbopol® Ultrez 10) was added to the lipid-based phase with R-55 to obtain 100 grams of a suspension, which was stirred continuously at room temperature. A gel-like water-in-oil emulsion was formed, with relatively round aqueous droplets dispersed in a lipophilic phase, and the emulsion was stable for at least 2 weeks at room temperature. […]

O=c1nc(CN2CCN(c3cccc(O)c3)CC2)[nH]c2ccccc12 [R-55, 2-((4-(3-hydroxyphenyl)piperazin-1-yl)methyl)quinazolin-4-one]
skin pigmentation (10 mg/ml R-55, face and behind the ear): noticeably less pigmented | skin appearance (10 mg/ml R-55): overall fresher, younger appearance
